Test results published in PMC7489219 (Molecular Brain, 2020).
Counter-ions that a name gives are not always drawn.

System: T1, primary mouse cortical neurons
T1 construct: primary cortical neurons, DIV 10
Experiment: cells
Design: Protection from NMDA-induced (30 uM, 10 min) neuronal death; Hoechst nuclear morphology by automated microscopy
Conditions: Cortical neurone, 20 h, read-out: % inhibition, inhibition of NMDA-induced cell death (protection score), 30 min pre-treatment
Outline: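 On DIV 10, primary mouse cortical neurons were given compound at 10 μM for 30 min at 37 °C, then 30 μM NMDA for 10 min, washed, and kept 20 h with compound. Dead cells were scored by nuclear morphology, and % protection was derived from survival relative to vehicle + NMDA and untreated controls.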

Row | SMILES | inhibition at 10 µM
1 | NNc1nncc2ccccc12 [Hydralazine hydrochloride] | -0.625%
2 | NS(=O)(=O)c1cc2c(cc1Cl)NCNS2(=O)=O [Hydrochlorothiazide] | 8.57%
3 | C[C@]12CCC(=O)C=C1CC[C@@H]1[C@@H]2[C@@H](O)C[C@@]2(C)[C@H]1CC[C@]2(O)C(=O)CO [Hydrocortisone (Cortisol)] | 4.6%
4 | NC(=O)NO [Hydroxyurea (Cytodrox)] | -2.47%
5 | C[C@H](CCC(=O)O)[C@H]1CC[C@H]2[C@@H]3C[C@H](O)[C@@H]4C[C@H](O)CC[C@]4(C)[C@H]3CC[C@]12C [Hyodeoxycholic acid (HDCA)] | -3.21%
6 | O=c1[nH]cnc2nc[nH]c12 [Hypoxanthine] | 1.08%
7 | COc1ccc(-c2oc3c(CC=C(C)C)c(O[C@@H]4O[C@H](CO)[C@@H](O)[C@H](O)[C@H]4O)cc(O)c3c(=O)c2O[C@@H]2O[C@@H](C)[C@H](O)[C@@H](O)[C@H]2O)cc1 [Icariin] | -2.42%
8 | COc1cc(C(C)=O)ccc1OCCCN1CCC(c2noc3cc(F)ccc23)CC1 [Iloperidone (Fanapt)] | 21.7%
9 | CC(C)Cn1cnc2c(N)nc3ccccc3c21 [Imiquimod] | -8.7%
10 | CC1Cc2ccccc2N1NC(=O)c1ccc(Cl)c(S(N)(=O)=O)c1 (stereo not shown) [Indapamide (Lozol)] | 0.426%
11 | O=C1Nc2ccccc2/C1=C1/Nc2ccccc2C1=O [Indirubin] | 8.04%
12 | OCc1c[nH]c2ccccc12 [Indole-3-carbinol] | -2.03%
13 | COc1ccc2c(c1)c(CC(=O)O)c(C)n2C(=O)c1ccc(Cl)cc1 [Indomethacin (Indocid, Indocin)] | 3.41%
14 | O=c1[nH]cnc2c1ncn2[C@@H]1O[C@H](CO)[C@@H](O)[C@H]1O [Inosine] | 19.8%
15 | CC(C)[N+]1(C)[C@@H]2CC[C@H]1CC(OC(=O)C(CO)c1ccccc1)C2 (stereo partly shown) [Ipratropium bromide] | 9.81%
16 | CC(C)Oc1ccc2c(=O)c(-c3ccccc3)coc2c1 [Ipriflavone] | -1.69%
17 | CCCCC1=NC2(CCCC2)C(=O)N1Cc1ccc(-c2ccccc2-c2nnn[nH]2)cc1 [Irbesartan (Avapro)] | 0.237%
18 | O=C(/C=C/c1ccc(O)cc1)c1ccc(O)cc1O [Isoliquiritigenin] | 5.56%
19 | NNC(=O)c1ccncc1 [Isoniazid (Tubizid)] | 45.6%
20 | CC(C)NCC(O)c1ccc(O)c(O)c1 (stereo not shown) [Isoprenaline hydrochloride] | -0.7%
21 | CC1=C(/C=C/C(C)=C/C=C/C(C)=C\C(=O)O)C(C)(C)CCC1 [Isotretinoin] | -1.4%
22 | O=c1c(O)c(-c2ccc(O)cc2)oc2cc(O)cc(O)c12 [Kaempferol] | -2.58%
23 | CC(C(=O)O)c1cccc(C(=O)c2ccccc2)c1 (stereo not shown) [Ketoprofen (Actron)] | 30.2%
24 | O=C(c1ccccc1)c1ccc2n1CCC2C(=O)O (stereo not shown) [Ketorolac (Toradol)] | 37.4%
25 | c1coc(CNc2ncnc3[nH]cnc23)c1 [Kinetin (6-Furfuryladenine)] | -0.453%
26 | C[C@H](O)[C@H](O)[C@@H](O)[C@@H](O)C=O [L(+)-Rhamnose Monohydrate] | 0.562%
27 | CNC[C@@H](O)c1ccc(O)c(O)c1 [L-Adrenaline (Epinephrine)] | 0.37%
28 | NC(=O)CC[C@H](N)C(=O)O [L-Glutamine] | -2.01%

Row | SMILES | inhibition at 10 µM
29 | C[N+](C)(C)C[C@H](O)CC(=O)[O-] [L-carnitine (Levocarnitine)] | 3.2%
30 | Nc1ccn([C@@H]2CS[C@H](CO)O2)c(=O)n1 [Lamivudine (Epivir)] | 0.555%
31 | Cc1c(OCC(F)(F)F)ccnc1C[S+]([O-])c1nc2ccccc2[nH]1 (stereo not shown) [Lansoprazole] | -7.28%
32 | CS(=O)(=O)CCNCc1ccc(-c2ccc3ncnc(Nc4ccc(OCc5cccc(F)c5)c(Cl)c4)c3c2)o1 [Lapatinib Ditosylate (Tykerb)] | 4.76%
33 | Cc1oncc1C(=O)Nc1ccc(C(F)(F)F)cc1 [Leflunomide] | 15.6%
34 | Nc1cccc2c1CN(C1CCC(=O)NC1=O)C2=O (stereo not shown) [Lenalidomide] | -2.36%
35 | N#Cc1ccc(C(c2ccc(C#N)cc2)n2cncn2)cc1 [Letrozole] | 0.34%
36 | Nc1nc2c(c(=O)[nH]1)N(C=O)C(CNc1ccc(C(=O)N[C@@H](CCC(=O)O)C(=O)O)cc1)CN2 (stereo partly shown) [Leucovorin Calcium] | -10.9%
37 | c1ccc([C@H]2CN3CCSC3=N2)cc1 [Levamisole Hydrochloride (Ergamisol)] | 19.8%
38 | N[C@@H](Cc1ccc(O)c(O)c1)C(=O)O [Levodopa (Sinemet)] | 0.209%
39 | C[C@H]1COc2c(N3CCN(C)CC3)c(F)cc3c(=O)c(C(=O)O)cn1c23 [Levofloxacin (Levaquin)] | -4.92%
40 | C#C[C@]1(O)CC[C@H]2[C@@H]3CCC4=CC(=O)CC[C@@H]4[C@H]3CC[C@@]21CC [Levonorgestrel (Levonelle)] | -1.05%
41 | CCN(CC)CC(=O)Nc1c(C)cccc1C [Lidocaine (Alphacaine)] | -8.6%
42 | CC1(C)O[C@H]2CC(=O)OC[C@]23[C@H]2CC[C@@]4(C)[C@H](c5ccoc5)OC(=O)[C@H]5O[C@]54[C@]2(C)C(=O)C[C@@H]13 [Limonin] | -3.17%
43 | CCC[C@@H]1C[C@@H](C(=O)N[C@@H]([C@H]2O[C@H](SC)[C@H](O)[C@@H](O)[C@H]2O)[C@@H](C)O)N(C)C1 [Lincomycin hydrochloride (Lincocin)] | -7.87%
44 | CC(=O)NC[C@H]1CN(c2ccc(N3CCOCC3)c(F)c2)C(=O)O1 [Linezolid (Zyvox)] | 37%
45 | CCn1cc(C(=O)O)c(=O)c2cc(F)c(N3CCNC(C)C3)c(F)c21 (stereo not shown) [Lomefloxacin hydrochloride (Maxaquin)] | 3.08%
46 | CN(C)C(=O)C(CCN1CCC(O)(c2ccc(Cl)cc2)CC1)(c1ccccc1)c1ccccc1 [Loperamide hydrochloride] | -2.48%
47 | Cc1cccc(C)c1OCC(=O)N[C@@H](Cc1ccccc1)[C@@H](O)C[C@H](Cc1ccccc1)NC(=O)[C@H](C(C)C)N1CCCNC1=O [Lopinavir (ABT-378)] | 1.09%
48 | CCOC(=O)N1CCC(=C2c3ccc(Cl)cc3CCc3cccnc32)CC1 [Loratadine] | -11.1%
49 | CCOC(=O)O[C@]1(C(=O)OCCl)CC[C@H]2[C@@H]3CCC4=CC(=O)C=C[C@]4(C)[C@H]3[C@@H](O)C[C@@]21C [Loteprednol Etabonate] | 30.7%
50 | O=c1cc(-c2ccc(O)c(O)c2)oc2cc(O)cc(O)c12 [Luteolin] | -2.28%
51 | C=CCc1ccc(O)c(-c2cc(CC=C)ccc2O)c1 [Magnolol] | -3.4%
52 | CNCCC[C@]12CC[C@H](c3ccccc31)c1ccccc12 [Maprotiline hydrochloride] | 0.000867%
53 | Cc1nnc(C(C)C)n1[C@@H]1C[C@H]2CC[C@@H](C1)N2CC[C@H](NC(=O)C1CCC(F)(F)CC1)c1ccccc1 [Maraviroc] | 2.4%
54 | Cc1ccc(NC(=O)c2ccc(CN3CCN(C)CC3)cc2)cc1Nc1nc(-c2cccnc2)cs1 [Masitinib (AB1010)] | -5.13%
55 | O=C1CCC[C@@H]2[C@H]3CCCN4CCC[C@@H](CN12)[C@@H]34 [Matrine ((+)-Matrine)] | -4.08%
